Data reported in patent publication US6127339A, “Peptide for binding thereto a low density lipoprotein” (Asahi Kasei Kogyo Kabushiki Kaisha, priority 1995, dated 2000).
No end group written: not given here.

test system: LDL; experiment: LDL-adsorbing ratio of peptide-bonded resin in LDL solution (decrease of free cholesterol); type: binding; conditions: Table 3; peptide-bonded resin 85 mg dry, 1 ml LDL solution 50 μg/ml in PBS

Substance	LDL-adsorbing ratio (%)
FFFFFFGGGGG [comparative peptide bonded to TG polystyrene resin, electric charge 0 or less, reference compound]	2.6%
LFLMR (not fully specified) [peptide bonded to TG polystyrene resin]	39.3%
LFLMRGGGGG	36.9%
WAWEEGGGGG (not fully specified) [comparative peptide bonded to TG polystyrene resin, electric charge 0 or less, reference compound]	4.3%
WAWRR (not fully specified) [peptide bonded to TG polystyrene resin]	62.2%
WAWRRGGGGG (not fully specified) [peptide bonded to TG polystyrene resin]	49.8%

same assay, conditions: Table 4; peptide-bonded resin 85 mg dry, 1 ml LDL solution 50 μg/ml in PBS

Substance	LDL-adsorbing ratio (%)
WFWK (not fully specified) [peptide bonded to TG polystyrene resin]	33.0%
WFWKK (not fully specified) [peptide bonded to TG polystyrene resin]	43.0%
WFWR (not fully specified) [peptide bonded to TG polystyrene resin]	35.0%
WFWRR (not fully specified) [peptide bonded to TG polystyrene resin]	49.0%
WWK	25.0%
WWR	32.0%

same assay, conditions: Table 5; D-form and L-form peptides on resin, same manner as Example 4

Substance	LDL-adsorbing ratio (%)
WFWRR [WFWRR (D-form)]	38.3%
WWR [WWR (D-form)]	41.6%
WWWR [WWWR (D-form)]	33.8%
WWWR [WWWR (L-form)] (also: L-form) [peptide bonded to TG polystyrene resin]	42.2%

same assay, conditions: Table 5; D-form and L-form peptides on resin, same manner as Example 4; listed as WFWRR (L-form)

Substance	LDL-adsorbing ratio (%)
WFWRR (not fully specified) [peptide bonded to TG polystyrene resin]	39.1%

same assay, conditions: Table 5; D-form and L-form peptides on resin, same manner as Example 4; listed as WWR (L-form)

Substance	LDL-adsorbing ratio (%)
WWR	33.8%

same assay, conditions: Table 6; peptide-bonded resin, same manner as Example 4

Substance	LDL-adsorbing ratio (%)
WAAAAAR (not fully specified) [peptide bonded to TG polystyrene resin]	23.7%
WAAAAR (not fully specified) [peptide bonded to TG polystyrene resin]	26.3%
WAAAR (not fully specified) [peptide bonded to TG polystyrene resin]	39.3%
WAAR (not fully specified) [peptide bonded to TG polystyrene resin]	36.3%
WAR	32.3%

test system: LDL; experiment: Staining of peptide-bonded resin with biotinylated LDL in plasma (ABC method); type: binding; design: key: the peptide-bonded resins which were stained are indicated with "+ (plus)"; the peptide-bonded resins which were not stained are indicated with "- (minus)"; conditions: Table 2, peptide-bonded TG resin, same manner as Example 1
Procedure: With respect to the adsorbent comprising the water-insoluble carrier having bonded thereto the peptide, as a method for evaluating the binding ability (affinity) of the adsorbent for an LDL, there can be mentioned a method in which, after causing an LDL to be adsorbed on the adsorbent, the adsorbent having the LDL adsorbed thereon is subjected to staining (avidin-biotin complex method, that is, ABC method). Specifically, a biotinylated LDL is added to plasma, and the adsorbent is immersed in the plasma for a predetermined period of time. Then, the adsorbent is taken out of the plasma, and washed. Subsequently, the adsorbent is immersed in a horseradish peroxidase-labeled streptoavidin solution, and a solution of 3,3'-diamino benzidine, which is a substrate for the above-mentioned enzyme (horseradish peroxidase), is added thereto, thereby staining the adsorbent. The binding ability of the adsorbent for LDL is evaluated from the degree of the staining. With respect to methods for evaluating a binding ability for LDL, reference can be made to, for example, the following literature: S. M. Hsu, L. Raine, H. Fanger, J. Histchem. Cytochem., 29, 577 (1981); and H. Towbin, T. Staehelin, J. Gordon, Proc. Natl. Acad. Sci. U.S.A., 76, 4350 (1979).
The ability of each of the peptides to bind thereto an LDL was evaluated as follows. To a blood sample obtained from a healthy person was added a 3.8% aqueous solution of sodium citrate to thereby obtain a mixture. The obtained mixture was centrifuged to separate the blood sample into a blood cells component and a plasma component.
On the other hand, each of the above-mentioned polystyrene resins having bonded thereto the above-synthesized peptides was individually taken out from the synthesis reaction system and packed in a column having a filter (manufactured and sold by Bio-Rad laboratories, U.S.A.). Subsequently, the plasma-LDL mixture prepared above was added to the column, and the column was allowed to stand at room temperature for 1 hour. Then, the column was washed with a physiological saline containing 0.1% Tween 20 and sodium phosphate. After the washing, 1 ml of a horseradish peroxidase-labeled streptoavidine (0.2 ug/ml) solution containing 10% Block Ace (manufacturedand sold by Dainippon Pharmaceutical Co., Ltd., Japan) was added to the column, and the column was allowed to stand at room temperature for 30 minutes. Then, 1 ml of a 3,3'-diaminobenzidine tetrahydrochloride ([…]) solution containing 0.005% hydrogen peroxide was added to the column (by the addition of this solution, when a peptide-bonded resin contained in the column has the LDL bonded thereto, the resin is stained to assume brown color).
Results are shown in Table 1, wherein the peptide-bonded resins which were stained are indicated with "+ (plus)" and the peptide-bonded resins which were not stained are indicated with "- (minus)".
The ability of each of the peptides to bind thereto an LDL was evaluated in substantially the same manner as in Example 1.

Substance	Stain
Example 2 Sample 6: pentapeptide N1-N5 = K H I Y W, bonded to TG polystyrene resin (KHIYW; not fully specified; printed as Lys His Ile Tyr Trp)	+
Example 2 Sample 7: pentapeptide N1-N5 = W R Y D R, bonded to TG polystyrene resin (WRYDR; not fully specified; printed as Trp Arg Tyr Asp Arg)	+
Example 2 Sample 8: pentapeptide N1-N5 = L K W F Q, bonded to TG polystyrene resin (LKWFQ; not fully specified; printed as Leu Lys Trp Phe Gln)	+
Example 2 Sample 9: pentapeptide N1-N5 = Y Y R W F, bonded to TG polystyrene resin (YYRWF; not fully specified; printed as Tyr Tyr Arg Trp Phe)	+
Example 2 Sample 10: pentapeptide N1-N5 = L W K S F, bonded to TG polystyrene resin (LWKSF; not fully specified; printed as Leu Trp Lys Ser Phe)	+
Example 2 Sample 11: pentapeptide N1-N5 = F F W R G, bonded to TG polystyrene resin (FFWRG; not fully specified; printed as Phe Phe Trp Arg Gly)	+
Example 2 Sample 12: pentapeptide N1-N5 = L N F R W, bonded to TG polystyrene resin (LNFRW; not fully specified; printed as Leu Asn Phe Arg Trp)	+
Example 2 Sample 13: pentapeptide N1-N5 = F L M R F, bonded to TG polystyrene resin (FLMRF; not fully specified; printed as Phe Leu Met Arg Phe)	+
Example 2 Sample 14: pentapeptide N1-N5 = W L M W R, bonded to TG polystyrene resin (WLMWR; not fully specified; printed as Trp Leu Met Trp Arg)	+
